Measured values from ChEMBL document CHEMBL5042496, “An unanticipated discovery towards novel naphthalimide corbelled aminothiazoximes as potential anti-MRSA agents and allosteric modulators for PBP2a” (Eur J Med Chem, 2022).
≈ marks a conversion by molar mass, not a printed value.

Columns and labels:
Staphylococcus aureus [1] = assay: Antibacterial activity against methicillin-resistant Staphylococcus aureus assessed as bacterial growth inhibition measured after 24 hrs by two fold serial dilution technique; assay type: functional
Enterococcus faecium = assay: Antibacterial activity against Enterococcus faecium assessed as bacterial growth inhibition measured after 24 hrs by two fold serial dilution technique; assay type: functional
Staphylococcus aureus [2] = assay: Antibacterial activity against Staphylococcus aureus assessed as bacterial growth inhibition measured after 24 hrs by two fold serial dilution technique; assay type: functional
Staphylococcus aureus [3] = assay: Antibacterial activity against Staphylococcus aureus ATCC 25923 assessed as bacterial growth inhibition measured after 24 hrs by two fold serial dilution technique; assay type: functional
Staphylococcus aureus [4] = assay: Antibacterial activity against Staphylococcus aureus ATCC 29213 assessed as bacterial growth inhibition measured after 24 hrs by two fold serial dilution technique; assay type: functional
Klebsiella pneumoniae = assay: Antibacterial activity against Klebsiella pneumoniae assessed as bacterial growth inhibition measured after 24 hrs by two fold serial dilution technique; assay type: functional
Escherichia coli [5] = assay: Antibacterial activity against Escherichia coli assessed as bacterial growth inhibition measured after 24 hrs by two fold serial dilution technique; assay type: functional
Pseudomonas aeruginosa [6] = assay: Antibacterial activity against Pseudomonas aeruginosa assessed as bacterial growth inhibition measured after 24 hrs by two fold serial dilution technique; assay type: functional
Acinetobacter baumannii = assay: Antibacterial activity against Acinetobacter baumannii assessed as bacterial growth inhibition measured after 24 hrs by two fold serial dilution technique; assay type: functional
Pseudomonas aeruginosa [7] = assay: Antibacterial activity against Pseudomonas aeruginosa ATCC 27853 assessed as bacterial growth inhibition measured after 24 hrs by two fold serial dilution technique; assay type: functional
Escherichia coli [8] = assay: Antibacterial activity against Escherichia coli ATCC 25922 assessed as bacterial growth inhibition measured after 24 hrs by two fold serial dilution technique; assay type: functional
[9] = Hemolytic activity in human RBC assessed as hemolysis incubated for 1 hr; assay type: toxicity, cell-based, Erythrocyte; conditions: red blood cells

Structure (SMILES): CCCCN1C(=O)c2cccc3c(N4CCN(C(=O)/C(=N\OC)c5csc(N)n5)CC4)ccc(c23)C1=O
- MIC (Staphylococcus aureus [1]): 8 µg/mL (≈ 15.4 µM)
- MIC (Enterococcus faecium): 16 µg/mL (≈ 30.7 µM)
- MIC (Staphylococcus aureus [2]): 64 µg/mL (≈ 123 µM)
- MIC (Staphylococcus aureus [3]): 128 µg/mL (≈ 246 µM)
- MIC (Staphylococcus aureus [4]): 64 µg/mL (≈ 123 µM)
- MIC (Klebsiella pneumoniae): 64 µg/mL (≈ 123 µM)
- MIC (Escherichia coli [5]): 32 µg/mL (≈ 61.5 µM)
- MIC (Pseudomonas aeruginosa [6]): 64 µg/mL (≈ 123 µM)
- MIC (Acinetobacter baumannii): 8 µg/mL (≈ 15.4 µM)
- MIC (Pseudomonas aeruginosa [7]): 64 µg/mL (≈ 123 µM)
- MIC (Escherichia coli [8]): 64 µg/mL (≈ 123 µM)
- HC50 at 1 h [9]: 563 µg/mL

Structure (SMILES): CO/N=C(\C(=O)N1CCN(c2ccc3c4c(cccc24)C(=O)N(C2CCCC2)C3=O)CC1)c1csc(N)n1
- MIC (Staphylococcus aureus [1]): 8 µg/mL (≈ 15 µM)
- MIC (Enterococcus faecium): 16 µg/mL (≈ 30 µM)
- MIC (Staphylococcus aureus [2]): 64 µg/mL (≈ 120 µM)
- MIC (Staphylococcus aureus [3]): 64 µg/mL (≈ 120 µM)
- MIC (Staphylococcus aureus [4]): 32 µg/mL (≈ 60.1 µM)
- MIC (Klebsiella pneumoniae): 32 µg/mL (≈ 60.1 µM)
- MIC (Escherichia coli [5]): 64 µg/mL (≈ 120 µM)
- MIC (Pseudomonas aeruginosa [6]): 64 µg/mL (≈ 120 µM)
- MIC (Acinetobacter baumannii): 8 µg/mL (≈ 15 µM)
- MIC (Pseudomonas aeruginosa [7]): 32 µg/mL (≈ 60.1 µM)
- MIC (Escherichia coli [8]): 64 µg/mL (≈ 120 µM)
- HC50 at 1 h [9]: 278 µg/mL

Structure (SMILES): CCON1C(=O)c2cccc3c(N4CCN(C(=O)/C(=N\OC)c5csc(N)n5)CC4)ccc(c23)C1=O
- MIC (Staphylococcus aureus [1]): 8 µg/mL (≈ 15.7 µM)
- MIC (Enterococcus faecium): 8 µg/mL (≈ 15.7 µM)
- MIC (Staphylococcus aureus [2]): 128 µg/mL (≈ 252 µM)
- MIC (Staphylococcus aureus [3]): 64 µg/mL (≈ 126 µM)
- MIC (Staphylococcus aureus [4]): 32 µg/mL (≈ 62.9 µM)
- MIC (Klebsiella pneumoniae): 16 µg/mL (≈ 31.5 µM)
- MIC (Escherichia coli [5]): 64 µg/mL (≈ 126 µM)
- MIC (Pseudomonas aeruginosa [6]): 64 µg/mL (≈ 126 µM)
- MIC (Acinetobacter baumannii): 2 µg/mL (≈ 3.93 µM)
- MIC (Pseudomonas aeruginosa [7]): 32 µg/mL (≈ 62.9 µM)
- MIC (Escherichia coli [8]): 64 µg/mL (≈ 126 µM)
- HC50 at 1 h [9]: 509 µg/mL

Structure (SMILES): CO/N=C(\C(=O)N1CCN(c2ccc3c4c(cccc24)C(=O)N(O)C3=O)CC1)c1csc(N)n1
- MIC (Staphylococcus aureus [1]): 16 µg/mL (≈ 33.3 µM)
- MIC (Enterococcus faecium): 8 µg/mL (≈ 16.6 µM)
- MIC (Staphylococcus aureus [2]): 64 µg/mL (≈ 133 µM)
- MIC (Staphylococcus aureus [3]): 32 µg/mL (≈ 66.6 µM)
- MIC (Staphylococcus aureus [4]): 32 µg/mL (≈ 66.6 µM)
- MIC (Klebsiella pneumoniae): 16 µg/mL (≈ 33.3 µM)
- MIC (Escherichia coli [5]): 32 µg/mL (≈ 66.6 µM)
- MIC (Pseudomonas aeruginosa [6]): 64 µg/mL (≈ 133 µM)
- MIC (Acinetobacter baumannii): 2 µg/mL (≈ 4.16 µM)
- MIC (Pseudomonas aeruginosa [7]): 64 µg/mL (≈ 133 µM)
- MIC (Escherichia coli [8]): 64 µg/mL (≈ 133 µM)
- HC50 at 1 h [9]: 277 µg/mL

Structure (SMILES): CO/N=C(\C(=O)N1CCN(c2ccc3c4c(cccc24)C(=O)N(Oc2ccccc2)C3=O)CC1)c1csc(N)n1
- MIC (Staphylococcus aureus [1]): 1 µg/mL (≈ 1.8 µM)
- MIC (Enterococcus faecium): 64 µg/mL (≈ 115 µM)
- MIC (Staphylococcus aureus [2]): 64 µg/mL (≈ 115 µM)
- MIC (Staphylococcus aureus [3]): 16 µg/mL (≈ 28.7 µM)
- MIC (Staphylococcus aureus [4]): 64 µg/mL (≈ 115 µM)
- MIC (Klebsiella pneumoniae): 32 µg/mL (≈ 57.5 µM)
- MIC (Escherichia coli [5]): 2 µg/mL (≈ 3.59 µM)
- MIC (Pseudomonas aeruginosa [6]): 32 µg/mL (≈ 57.5 µM)
- MIC (Acinetobacter baumannii): 32 µg/mL (≈ 57.5 µM)
- MIC (Pseudomonas aeruginosa [7]): 32 µg/mL (≈ 57.5 µM)
- MIC (Escherichia coli [8]): 128 µg/mL (≈ 230 µM)
- HC50 at 1 h [9]: 223 µg/mL

Structure (SMILES): CO/N=C(\C(=O)N1CCN(c2ccc3c4c(cccc24)C(=O)N(c2ncc(C)s2)C3=O)CC1)c1csc(N)n1
- MIC (Staphylococcus aureus [1]): 8 µg/mL (≈ 14.2 µM)
- MIC (Enterococcus faecium): 64 µg/mL (≈ 114 µM)
- MIC (Staphylococcus aureus [2]): 128 µg/mL (≈ 228 µM)
- MIC (Staphylococcus aureus [3]): 128 µg/mL (≈ 228 µM)
- MIC (Staphylococcus aureus [4]): 64 µg/mL (≈ 114 µM)
- MIC (Klebsiella pneumoniae): 1 µg/mL (≈ 1.78 µM)
- MIC (Escherichia coli [5]): 128 µg/mL (≈ 228 µM)
- MIC (Pseudomonas aeruginosa [6]): 64 µg/mL (≈ 114 µM)
- MIC (Acinetobacter baumannii): 128 µg/mL (≈ 228 µM)
- MIC (Pseudomonas aeruginosa [7]): 32 µg/mL (≈ 57 µM)
- MIC (Escherichia coli [8]): 16 µg/mL (≈ 28.5 µM)
- HC50 at 1 h [9]: 234 µg/mL

Structure (SMILES): CO/N=C(\C(=O)N1CCN(c2ccc3c4c(cccc24)C(=O)N(C(CO)CO)C3=O)CC1)c1csc(N)n1
- MIC (Staphylococcus aureus [1]): 4 µg/mL (≈ 7.43 µM)
- MIC (Enterococcus faecium): 64 µg/mL (≈ 119 µM)
- MIC (Staphylococcus aureus [2]): 64 µg/mL (≈ 119 µM)
- MIC (Staphylococcus aureus [3]): 16 µg/mL (≈ 29.7 µM)
- MIC (Staphylococcus aureus [4]): 32 µg/mL (≈ 59.4 µM)
- MIC (Klebsiella pneumoniae): 128 µg/mL (≈ 238 µM)
- MIC (Escherichia coli [5]): 4 µg/mL (≈ 7.43 µM)
- MIC (Pseudomonas aeruginosa [6]): 32 µg/mL (≈ 59.4 µM)
- MIC (Acinetobacter baumannii): 32 µg/mL (≈ 59.4 µM)
- MIC (Pseudomonas aeruginosa [7]): 32 µg/mL (≈ 59.4 µM)
- MIC (Escherichia coli [8]): 64 µg/mL (≈ 119 µM)
- HC50 at 1 h [9]: 232 µg/mL

Structure (SMILES): CO/N=C(\C(=O)N1CCN(c2ccc3c4c(cccc24)C(=O)N(c2nnc(C)s2)C3=O)CC1)c1csc(N)n1
- MIC (Staphylococcus aureus [1]): 1 µg/mL (≈ 1.78 µM)
- MIC (Enterococcus faecium): 16 µg/mL (≈ 28.4 µM)
- MIC (Staphylococcus aureus [2]): 64 µg/mL (≈ 114 µM)
- MIC (Staphylococcus aureus [3]): 64 µg/mL (≈ 114 µM)
- MIC (Staphylococcus aureus [4]): 16 µg/mL (≈ 28.4 µM)
- MIC (Klebsiella pneumoniae): 4 µg/mL (≈ 7.11 µM)
- MIC (Escherichia coli [5]): 4 µg/mL (≈ 7.11 µM)
- MIC (Pseudomonas aeruginosa [6]): 32 µg/mL (≈ 56.9 µM)
- MIC (Acinetobacter baumannii): 32 µg/mL (≈ 56.9 µM)
- MIC (Pseudomonas aeruginosa [7]): 32 µg/mL (≈ 56.9 µM)
- MIC (Escherichia coli [8]): 32 µg/mL (≈ 56.9 µM)
- HC50 at 1 h [9]: 265 µg/mL

Structure (SMILES): CO/N=C(\C(=O)N1CCN(c2ccc3c4c(cccc24)C(=O)N(C)C3=O)CC1)c1csc(N)n1
- MIC (Staphylococcus aureus [1]): 4 µg/mL (≈ 8.36 µM)
- MIC (Enterococcus faecium): 8 µg/mL (≈ 16.7 µM)
- MIC (Staphylococcus aureus [2]): 16 µg/mL (≈ 33.4 µM)
- MIC (Staphylococcus aureus [3]): 64 µg/mL (≈ 134 µM)
- MIC (Staphylococcus aureus [4]): 16 µg/mL (≈ 33.4 µM)
- MIC (Klebsiella pneumoniae): 8 µg/mL (≈ 16.7 µM)
- MIC (Escherichia coli [5]): 32 µg/mL (≈ 66.9 µM)
- MIC (Pseudomonas aeruginosa [6]): 64 µg/mL (≈ 134 µM)
- MIC (Acinetobacter baumannii): 8 µg/mL (≈ 16.7 µM)
- MIC (Pseudomonas aeruginosa [7]): 32 µg/mL (≈ 66.9 µM)
- MIC (Escherichia coli [8]): 64 µg/mL (≈ 134 µM)
- HC50 at 1 h [9]: 343 µg/mL

Structure (SMILES): CO/N=C(\C(=O)N1CCN(c2ccc3c4c(cccc24)C(=O)N(n2cnnc2)C3=O)CC1)c1csc(N)n1
- MIC (Staphylococcus aureus [1]): 2 µg/mL (≈ 3.76 µM)
- MIC (Enterococcus faecium): 16 µg/mL (≈ 30.1 µM)
- MIC (Staphylococcus aureus [2]): 128 µg/mL (≈ 241 µM)
- MIC (Staphylococcus aureus [3]): 128 µg/mL (≈ 241 µM)
- MIC (Staphylococcus aureus [4]): 1 µg/mL (≈ 1.88 µM)
- MIC (Klebsiella pneumoniae): 64 µg/mL (≈ 120 µM)
- MIC (Escherichia coli [5]): 32 µg/mL (≈ 60.2 µM)
- MIC (Pseudomonas aeruginosa [6]): 16 µg/mL (≈ 30.1 µM)
- MIC (Acinetobacter baumannii): 16 µg/mL (≈ 30.1 µM)
- MIC (Pseudomonas aeruginosa [7]): 64 µg/mL (≈ 120 µM)
- MIC (Escherichia coli [8]): 64 µg/mL (≈ 120 µM)
- HC50 at 1 h [9]: 255 µg/mL

Structure (SMILES): CO/N=C(\C(=O)N1CCN(c2ccc3c4c(cccc24)C(=O)N(c2nccs2)C3=O)CC1)c1csc(N)n1
- MIC (Staphylococcus aureus [1]): 2 µg/mL (≈ 3.65 µM)
- MIC (Enterococcus faecium): 16 µg/mL (≈ 29.2 µM)
- MIC (Staphylococcus aureus [2]): 16 µg/mL (≈ 29.2 µM)
- MIC (Staphylococcus aureus [3]): 16 µg/mL (≈ 29.2 µM)
- MIC (Staphylococcus aureus [4]): 32 µg/mL (≈ 58.4 µM)
- MIC (Klebsiella pneumoniae): 64 µg/mL (≈ 117 µM)
- MIC (Escherichia coli [5]): 16 µg/mL (≈ 29.2 µM)
- MIC (Pseudomonas aeruginosa [6]): 64 µg/mL (≈ 117 µM)
- MIC (Acinetobacter baumannii): 16 µg/mL (≈ 29.2 µM)
- MIC (Pseudomonas aeruginosa [7]): 64 µg/mL (≈ 117 µM)
- MIC (Escherichia coli [8]): 64 µg/mL (≈ 117 µM)
- HC50 at 1 h [9]: 311 µg/mL

Structure (SMILES): CCCCCCN1C(=O)c2cccc3c(N4CCN(C(=O)/C(=N\OC)c5csc(N)n5)CC4)ccc(c23)C1=O
- MIC (Staphylococcus aureus [1]): 32 µg/mL (≈ 58.3 µM)
- MIC (Enterococcus faecium): 64 µg/mL (≈ 117 µM)
- MIC (Staphylococcus aureus [2]): 16 µg/mL (≈ 29.2 µM)
- MIC (Staphylococcus aureus [3]): 128 µg/mL (≈ 233 µM)
- MIC (Staphylococcus aureus [4]): 64 µg/mL (≈ 117 µM)
- MIC (Klebsiella pneumoniae): 64 µg/mL (≈ 117 µM)
- MIC (Escherichia coli [5]): 32 µg/mL (≈ 58.3 µM)
- MIC (Pseudomonas aeruginosa [6]): 64 µg/mL (≈ 117 µM)
- MIC (Acinetobacter baumannii): 8 µg/mL (≈ 14.6 µM)
- MIC (Pseudomonas aeruginosa [7]): 64 µg/mL (≈ 117 µM)
- MIC (Escherichia coli [8]): 64 µg/mL (≈ 117 µM)
- HC50 at 1 h [9]: 306 µg/mL
